Source: PubChem BioAssay AID328 (DTP/NCI, 2004)
Values joined by “and” are separate entries in the source; they are usually repeats but may differ in a detail not shown here. Equal values may be shown once. Inconclusive results and toxic doses are left out. How the source made its calls: active means survival T/C of 150% or more; inactive means T/C below 125% in these data.

System: BDF1 mice, P388 leukemia ip, median survival T/C
Assay: NCI In Vivo Anticancer Drug Screen. Data for tumor model P388 Leukemia (intraperitoneal) in B6D2F1 (BDF1) mice
Conditions: endpoint: median survival time, higher = longer survival
Summary of the method: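 Reported as T/C, where T is the survival measurement in dosed animals and C the same measurement in vehicle controls.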

[1] = dose: 200.0 mg/kg/injection, schedule: Q04DX003 (ip), vehicle: saline with Tween-80
[2] = dose: 400.0 mg/kg/injection, schedule: Q04DX003 (ip), vehicle: saline with Tween-80
[3] = dose: 100.0 mg/kg/injection, schedule: Q01DX009 (ip), vehicle: saline with Tween-80
[4] = dose: 100.0 mg/kg/injection, schedule: Q04DX003 (ip), vehicle: saline with Tween-80
[5] = dose: 200.0 mg/kg/injection, schedule: Q01DX009 (ip), vehicle: saline with Tween-80
[6] = dose: 400.0 mg/kg/injection, schedule: Q01DX009 (ip), vehicle: saline with Tween-80
[7] = dose: 5.0 mg/kg/injection, schedule: Q01DX009 (ip), vehicle: Klucel (hydroxypropylcellulose) (HPC)
[8] = dose: 10.0 mg/kg/injection, schedule: Q01DX009 (ip), vehicle: Klucel (hydroxypropylcellulose) (HPC)
[9] = dose: 50.0 mg/kg/injection, schedule: Q01DX009 (ip), vehicle: saline with Tween-80

Measured: T/C

O=C(O)c1occ(Cl)c1Cl
inactive: dose: 0.78 mg/kg/injection, schedule: Q01DX009 (ip), vehicle: water 100 % of control | dose: 1.56 mg/kg/injection, schedule: Q01DX009 (ip), vehicle: water 98 % of control | dose: 3.12 mg/kg/injection, schedule: Q01DX009 (ip), vehicle: water 97 % of control | dose: 6.25 mg/kg/injection, schedule: Q01DX009 (ip), vehicle: water 97 % of control | dose: 12.5 mg/kg/injection, schedule: Q01DX009 (ip), vehicle: water 94 % of control | dose: 25.0 mg/kg/injection, schedule: Q01DX009 (ip), vehicle: water 94 % of control | dose: 50.0 mg/kg/injection, schedule: Q01DX009 (ip), vehicle: water 106 % of control | dose: 50.0 mg/kg/injection, schedule: Q04DX003 (ip), vehicle: water 96 % of control | dose: 100.0 mg/kg/injection, schedule: Q04DX003 (ip), vehicle: water 104 % of control | dose: 200.0 mg/kg/injection, schedule: Q04DX003 (ip), vehicle: water 119 % of control

C[N+](C)(C)CCOC(=O)/C=C/c1cnc[nH]1
inactive: dose: 5.0 mg/kg/injection, schedule: Q01DX009 (ip), vehicle: saline 97 % of control | dose: 10.0 mg/kg/injection, schedule: Q01DX009 (ip), vehicle: saline 95 % of control | dose: 20.0 mg/kg/injection, schedule: Q01DX009 (ip), vehicle: saline 117 % of control

O=c1[nH]cc(I)cc1I
inactive: [1] 100 % of control | [2] 100 % of control

O=CC(/C=N\Nc1ccccc1)=N/Nc1ccccc1
inactive: dose: 20.0 mg/kg/injection, schedule: Q01DX009 (ip), vehicle: saline with Tween-80 100 % of control | dose: 80.0 mg/kg/injection, schedule: Q01DX009 (ip), vehicle: saline with Tween-80 89 % of control

COc1cc(C2c3cc4c(cc3C(O)C(CO)C2CO)OCO4)cc(OC)c1OC (stereo unspecified)
inactive: dose: 37.5 mg/kg/injection, schedule: Q04DX003 (ip), vehicle: saline sonified 109 % of control | dose: 44.0 mg/kg/injection, schedule: Q04DX003 (ip), vehicle: saline sonified 100 % of control | dose: 66.0 mg/kg/injection, schedule: Q04DX003 (ip), vehicle: saline sonified 105 % of control | dose: 75.0 mg/kg/injection, schedule: Q04DX003 (ip), vehicle: saline sonified 122 % of control | dose: 100.0 mg/kg/injection, schedule: Q04DX003 (ip), vehicle: saline sonified 110 % of control | dose: 150.0 mg/kg/injection, schedule: Q04DX003 (ip), vehicle: saline sonified 110 % of control
active: dose: 17.5 mg/kg/injection, schedule: Q01DX009 (ip), vehicle: Klucel (hydroxypropylcellulose) (HPC) 176 % of control | dose: 35.0 mg/kg/injection, schedule: Q01DX009 (ip), vehicle: Klucel (hydroxypropylcellulose) (HPC) 209 % of control | dose: 44.0 mg/kg/injection, schedule: Q01DX009 (ip), vehicle: saline with Tween-80 150 % of control | dose: 66.0 mg/kg/injection, schedule: Q01DX009 (ip), vehicle: saline with Tween-80 150 % of control | dose: 70.0 mg/kg/injection, schedule: Q01DX009 (ip), vehicle: Klucel (hydroxypropylcellulose) (HPC) 228 % of control and 159 % of control | [3] 209 % of control | [4] 160 % of control and 183 % of control | dose: 140.0 mg/kg/injection, schedule: Q01DX009 (ip), vehicle: Klucel (hydroxypropylcellulose) (HPC) 172 % of control | dose: 150.0 mg/kg/injection, schedule: Q01DX009 (ip), vehicle: saline with Tween-80 159 % of control | dose: 150.0 mg/kg/injection, schedule: Q04DX003 (ip), vehicle: saline with Tween-80 160 % of control | [1] 172 % of control and 191 % of control | dose: 225.0 mg/kg/injection, schedule: Q04DX003 (ip), vehicle: saline with Tween-80 190 % of control | dose: 300.0 mg/kg/injection, schedule: Q04DX003 (ip), vehicle: saline sonified 200 % of control | [2] 200 % of control and 204 % of control

COc1cccc(CCC(=O)O)c1
inactive: dose: 100.0 mg/kg/injection, schedule: Q04DX003 (ip), vehicle: gum acacia 100 % of control | dose: 200.0 mg/kg/injection, schedule: Q04DX003 (ip), vehicle: gum acacia 104 % of control | dose: 400.0 mg/kg/injection, schedule: Q04DX003 (ip), vehicle: gum acacia 113 % of control

COc1cc2c(cc1C(C)C)CCC1C(C)(C#N)CCCC21C (stereo unspecified)
inactive: [3] 110 % of control | [5] 110 % of control | [6] 95 % of control

NC(=O)c1cc([N+](=O)[O-])c(Cl)c([N+](=O)[O-])c1
inactive: dose: 2.5 mg/kg/injection, schedule: Q01DX009 (ip), vehicle: Klucel (hydroxypropylcellulose) (HPC) 109 % of control | [7] 109 % of control | [8] 104 % of control and 105 % of control | dose: 10.0 mg/kg/injection, schedule: Q04DX003 (ip), vehicle: Klucel (hydroxypropylcellulose) (HPC) 100 % of control | dose: 40.0 mg/kg/injection, schedule: Q04DX003 (ip), vehicle: Klucel (hydroxypropylcellulose) (HPC) 90 % of control

O=C1CCCCCC2CC12 (stereo unspecified) (tested in a mixture with another compound)
inactive: dose: 100.0 mg/kg/injection, schedule: Q01DX001 (ip), vehicle: other 98 % of control | dose: 200.0 mg/kg/injection, schedule: Q01DX001 (ip), vehicle: other 103 % of control | dose: 400.0 mg/kg/injection, schedule: Q01DX001 (ip), vehicle: other 108 % of control

C=C1C(=O)O[C@@H]2/C=C(\CO)CC/C=C(\C)C[C@H](OC(=O)C(C)CO)[C@@H]12 (stereo partly specified)
inactive: dose: 2.75 mg/kg/injection, schedule: Q01DX009 (ip), vehicle: alcohol 118 % of control

Cc1nc(N)c(=O)[nH]c1C
inactive: [3] 95 % of control | [4] 108 % of control | [5] 90 % of control | [1] 95 % of control | [6] 90 % of control | [2] 91 % of control

O=C(CC(c1ccccc1)N1CCN(c2ccccc2)CC1)c1ccccc1 (stereo unspecified)
inactive: dose: 100.0 mg/kg/injection, schedule: Q04DX003 (ip), vehicle: Klucel (hydroxypropylcellulose) (HPC) 100 % of control | dose: 200.0 mg/kg/injection, schedule: Q04DX003 (ip), vehicle: Klucel (hydroxypropylcellulose) (HPC) 100 % of control | dose: 400.0 mg/kg/injection, schedule: Q04DX003 (ip), vehicle: Klucel (hydroxypropylcellulose) (HPC) 100 % of control

Nc1nc(N)c(N=O)c(Nc2ccc(Br)cc2)n1
inactive: [3] 104 % of control | [5] 113 % of control | [6] 95 % of control

CS(=O)C/C(=C/CCCl)c1cccs1 (stereo unspecified)
inactive: [9] 105 % of control | [3] 94 % of control | [5] 105 % of control

COc1cc2cc(c1Cl)N(C)C(=O)CC(OC(=O)C(C)C)C1(C)OC1C(C)C1CC(O)(NC(=O)O1)C(OC)/C=C/C=C(/C)C2OC(C)=O (stereo unspecified)
active: dose: 1.6 micrograms/kg/injection, schedule: Q01DX009 (ip), vehicle: saline + alcohol 162 % of control | dose: 3.1 micrograms/kg/injection, schedule: Q01DX009 (ip), vehicle: saline + alcohol 150 % of control | dose: 6.2 micrograms/kg/injection, schedule: Q01DX009 (ip), vehicle: saline + alcohol 166 % of control | dose: 12.5 micrograms/kg/injection, schedule: Q01DX009 (ip), vehicle: saline + alcohol 179 % of control | dose: 25.0 micrograms/kg/injection, schedule: Q01DX009 (ip), vehicle: saline + alcohol 170 % of control

CC(=O)CC1c2c(ccc3c2OCO3)-c2ccc3cc4c(cc3c2N1C)OCO4 (stereo unspecified)
inactive: [7] 95 % of control | [8] 110 % of control | dose: 13.0 mg/kg/injection, schedule: Q01DX010 (ip), vehicle: saline 100 % of control | dose: 20.0 mg/kg/injection, schedule: Q01DX009 (ip), vehicle: Klucel (hydroxypropylcellulose) (HPC) 120 % of control | dose: 20.0 mg/kg/injection, schedule: Q01DX010 (ip), vehicle: saline 105 % of control | dose: 30.0 mg/kg/injection, schedule: Q01DX010 (ip), vehicle: saline 110 % of control | dose: 40.0 mg/kg/injection, schedule: Q01DX009 (ip), vehicle: Klucel (hydroxypropylcellulose) (HPC) 115 % of control

CCC1C/C(=C2/NC3CCCCC3NC2=O)C(=O)O1 (stereo unspecified)
inactive: dose: 25.0 mg/kg/injection, schedule: Q04DX002 (ip), vehicle: saline with Tween-80 101 % of control | dose: 50.0 mg/kg/injection, schedule: Q04DX002 (ip), vehicle: saline with Tween-80 98 % of control | dose: 100.0 mg/kg/injection, schedule: Q04DX002 (ip), vehicle: saline with Tween-80 88 % of control

O=C1CN(Cc2ccc3c(c2)OCO3)NO1
inactive: dose: 25.0 mg/kg/injection, schedule: Q01DX009 (ip), vehicle: saline with Tween-80 113 % of control | [9] 106 % of control | [3] 123 % of control | [5] 115 % of control
